Results reported in ChEMBL document CHEMBL5390204, “Persephacin Is a Broad-Spectrum Antifungal Aureobasidin Metabolite That Overcomes Intrinsic Resistance in Aspergillus fumigatus” (J Nat Prod, 2023).
≈ marks a conversion by molar mass, not a printed value.

Key:
Type in all cases: functional
[1] = test system: Mucor circinelloides; experiment: Antifungal activity against Mucor circinelloides 235C7 assessed as reduction in fungal viability incubated for 48 hrs by microplate reader analysis
[2] = test system: Pichia kudriavzevii; experiment: Antifungal activity against Candida krusei ATCC 6258 (Y-7179) assessed as reduction in fungal growth incubated for 48 hrs by microplate reader analysis
[3] = test system: Candida albicans; experiment: Antifungal activity against Candida albicans 30 assessed as inhibition in fungal growth incubated for 48 hrs by microplate reader analysis
[4] = test system: Cryptococcus neoformans; experiment: Antifungal activity against Cryptococcus neoformans H99 assessed as inhibition in fungal growth incubated for 48 hrs in presence of 5% serum by microplate reader analysis
[5] = test system: Fusarium solani; experiment: Antifungal activity against Fusarium solani 243G2 assessed as reduction in fungal growth incubated for 48 hrs by microplate reader analysis
[6] = test system: [Candida] auris; experiment: Antifungal activity against multidrug-resistant Candida auris 385 assessed as inhibition in fungal growth incubated for 48 hrs by microplate reader analysis; conditions: Candidozyma auris
[7] = test system: Candida albicans; experiment: Antifungal activity against Candida albicans SC5314 assessed as reduction in fungal growth incubated for 48 hrs by microplate reader analysis
[8] = test system: [Candida] auris; experiment: Antifungal activity against multidrug-resistant Candida auris 387 assessed as inhibition in fungal growth incubated for 48 hrs by microplate reader analysis; conditions: Candidozyma auris
[9] = test system: Candida albicans; experiment: Antifungal activity against Candida albicans SC5314 assessed as reduction in fungal viability incubated for 48 hrs by microplate reader analysis
[10] = test system: Pichia kudriavzevii; experiment: Antifungal activity against multidrug-resistant Candida krusei 397 assessed as inhibition in fungal growth incubated for 48 hrs by microplate reader analysis
[11] = test system: Saccharomyces cerevisiae; experiment: Antifungal activity against multidrug-resistant Saccharomyces cerevisiae 399 assessed as inhibition in fungal growth incubated for 48 hrs by microplate reader analysis
[12] = test system: Candida parapsilosis; experiment: Antifungal activity against Candida parapsilosis 15 assessed as inhibition in fungal growth incubated for 48 hrs by microplate reader analysis; conditions: Lodderomyces parapsilosis
[13] = test system: Clavispora lusitaniae; experiment: Antifungal activity against multidrug-resistant Candida lusitaniae 398 assessed as inhibition in fungal growth incubated for 48 hrs by microplate reader analysis
[14] = test system: Candida albicans; experiment: Antifungal activity against Candida albicans 24 assessed as inhibition in fungal growth incubated for 48 hrs by microplate reader analysis
[15] = test system: Fusarium solani; experiment: Antifungal activity against Fusarium solani 243G2 assessed as reduction in fungal viability incubated for 48 hrs by microplate reader analysis
[16] = test system: Candida albicans; experiment: Antifungal activity against Candida albicans ATCC 10231 assessed as reduction in fungal growth incubated for 48 hrs by microplate reader analysis
[17] = test system: Rhizopus arrhizus; experiment: Antifungal activity against Rhizopus oryzae FGSC 9543 assessed as reduction in fungal viability incubated for 48 hrs by microplate reader analysis
[18] = test system: Hamigera insecticola; experiment: Antifungal activity against Hamigera insecticola NRRL35442 assessed as reduction in fungal growth incubated for 48 hrs by microplate reader analysis
[19] = test system: [Candida] auris; experiment: Antifungal activity against multidrug-resistant Candida auris 383 assessed as inhibition in fungal growth incubated for 48 hrs by microplate reader analysis; conditions: Candidozyma auris
[20] = test system: Aspergillus flavus; experiment: Antifungal activity against Aspergillus flavus NRRL485 assessed as reduction in fungal growth incubated for 48 hrs by microplate reader analysis
[21] = test system: Candida albicans; experiment: Antifungal activity against Candida albicans ATCC 10231 assessed as reduction in fungal viability incubated for 48 hrs by microplate reader analysis
[22] = test system: Candida parapsilosis; experiment: Antifungal activity against Candida parapsilosis 28 assessed as inhibition in fungal growth incubated for 48 hrs by microplate reader analysis; conditions: Lodderomyces parapsilosis
[23] = test system: Nakaseomyces glabratus; experiment: Antifungal activity against Candida glabrata 2 assessed as inhibition in fungal growth incubated for 48 hrs by microplate reader analysis
[24] = test system: Saccharomyces cerevisiae; experiment: Antifungal activity against multidrug-resistant Saccharomyces cerevisiae 400 assessed as inhibition in fungal growth incubated for 48 hrs by microplate reader analysis
[25] = test system: Candida albicans; experiment: Antifungal activity against Candida albicans 1 assessed as inhibition in fungal growth incubated for 48 hrs by microplate reader analysis
[26] = test system: [Candida] auris; experiment: Antifungal activity against multidrug-resistant Candida auris 389 assessed as inhibition in fungal growth incubated for 48 hrs by microplate reader analysis; conditions: Candidozyma auris
[27] = test system: Aspergillus fumigatus; experiment: Antifungal activity against Aspergillus fumigatus NRRL5109 assessed as reduction in fungal growth incubated for 48 hrs by microplate reader analysis
[28] = test system: [Candida] haemuloni; experiment: Antifungal activity against multidrug-resistant Candida haemulonii 393 assessed as inhibition in fungal growth incubated for 48 hrs by microplate reader analysis; conditions: Candidozyma haemuli
[29] = test system: Candida parapsilosis; experiment: Antifungal activity against Candida parapsilosis ATCC 22019 (Y-12969) assessed as reduction in fungal viability incubated for 48 hrs by microplate reader analysis
[30] = test system: Pichia kudriavzevii; experiment: Antifungal activity against Candida krusei ATCC 6258 (Y-7179) assessed as reduction in fungal viability incubated for 48 hrs by microplate reader analysis
[31] = test system: [Candida] auris; experiment: Antifungal activity against multidrug-resistant Candida auris 384 assessed as inhibition in fungal growth incubated for 48 hrs by microplate reader analysis; conditions: Candidozyma auris
[32] = test system: Candida duobushaemulonii; experiment: Antifungal activity against multidrug-resistant Candida duobushaemulonii 392 assessed as inhibition in fungal growth incubated for 48 hrs by microplate reader analysis; conditions: Candidozyma duobushaemuli
[33] = test system: Nakaseomyces glabratus; experiment: Antifungal activity against Candida glabrata 20 assessed as inhibition in fungal growth incubated for 48 hrs by microplate reader analysis
[34] = test system: [Candida] auris; experiment: Antifungal activity against multidrug-resistant Candida auris 381 assessed as inhibition in fungal growth incubated for 48 hrs in presence of 10% serum by microplate reader analysis; conditions: Candidozyma auris
[35] = test system: Candida tropicalis; experiment: Antifungal activity against Candida tropicalis ATCC750 (Y-12699) assessed as reduction in fungal growth incubated for 48 hrs by microplate reader analysis
[36] = test system: [Candida] auris; experiment: Antifungal activity against multidrug-resistant Candida auris 381 assessed as inhibition in fungal growth incubated for 48 hrs by microplate reader analysis; conditions: Candidozyma auris
[37] = test system: Paecilomyces lilacinus; experiment: Antifungal activity against Paecilomyces lilacinus 165E10 assessed as reduction in fungal growth incubated for 48 hrs by microplate reader analysis; conditions: Purpureocillium lilacinum
[38] = test system: Aspergillus fumigatus; experiment: Antifungal activity against Aspergillus fumigatus ATCC MYA-3627 assessed as inhibition in fungal growth incubated for 48 hrs in presence of 5% serum by microplate reader analysis
[39] = test system: Candida parapsilosis; experiment: Antifungal activity against Candida parapsilosis 7 assessed as inhibition in fungal growth incubated for 48 hrs by microplate reader analysis; conditions: Lodderomyces parapsilosis
[40] = test system: Cryptococcus neoformans; experiment: Antifungal activity against Cryptococcus neoformans H99 assessed as inhibition in fungal growth incubated for 48 hrs in presence of 0% serum by microplate reader analysis
[41] = test system: Candida parapsilosis; experiment: Antifungal activity against Candida parapsilosis 9 assessed as inhibition in fungal growth incubated for 48 hrs by microplate reader analysis; conditions: Lodderomyces parapsilosis
[42] = test system: Aspergillus fumigatus; experiment: Antifungal activity against Aspergillus fumigatus NRRL5109 assessed as reduction in fungal viability incubated for 48 hrs by microplate reader analysis
[43] = test system: Cryptococcus neoformans; experiment: Antifungal activity against Cryptococcus neoformans H99 assessed as inhibition in fungal growth incubated for 48 hrs in presence of 10% serum by microplate reader analysis

With CC[C@H](C)C[C@H](C)C[C@H](C)C[C@@H]1NC(=O)[C@H](C(C)C)N(C)C(=O)[C@@H]([C@H](C)CC)OC(=O)[C@H](C(C)(C)O)N(C)C(=O)[C@H](CC(C)C)NC(=O)[C@H](C(C)C)N(C)C(=O)[C@H]([C@H](C)CC)NC(=O)[C@@H]2CCCN2C(=O)CN(C)C1=O the “MFC<=99.9” value [1] was greater than 10 µM, the MFC [2] was 2.5 µM (≈ 2.69 µg/mL) and the MIC80 [2] was 1.3 µM (≈ 1.4 µg/mL). For the same molecule, the MIC80 [3] was 5 µM (≈ 5.38 µg/mL), the MIC80 [4] was less than 0.2 µM and the MFC [5] was 2.5 µM (≈ 2.69 µg/mL). It also gave an MIC80 [5] of 1.3 µM (≈ 1.4 µg/mL), an MIC80 [6] of 2.5 µM (≈ 2.69 µg/mL) and an MFC [7] of 1.3 µM (≈ 1.4 µg/mL). For the same molecule, the MIC80 [7] was 0.3 µM (≈ 0.323 µg/mL), the MIC80 [8] was 2.5 µM (≈ 2.69 µg/mL) and the “MFC<=99.9” value [9] was 1.3 µM (≈ 1.4 µg/mL). The MIC80 [10] was 2.5 µM (≈ 2.69 µg/mL), the MIC80 [11] was 2.5 µM (≈ 2.69 µg/mL) and the MIC80 [12] was 2.5 µM (≈ 2.69 µg/mL). The MIC80 [13] was 2.5 µM (≈ 2.69 µg/mL), the MIC80 [14] was 0.6 µM (≈ 0.645 µg/mL) and the “MFC<=99.9” value [15] was 2.5 µM (≈ 2.69 µg/mL). The MFC [16] was 1.3 µM (≈ 1.4 µg/mL), the MIC80 [16] was 0.6 µM (≈ 0.645 µg/mL) and the “MFC<=99.9” value [17] was greater than 10 µM. For the same molecule, the MFC [18] was 5 µM (≈ 5.38 µg/mL), the MIC80 [18] was 0.6 µM (≈ 0.645 µg/mL) and the MIC80 [19] was 2.5 µM (≈ 2.69 µg/mL). For the same molecule, the MFC [20] was greater than 10 µM, the MIC80 [20] was 1.3 µM (≈ 1.4 µg/mL) and the “MFC<=99.9” value [21] was 1.3 µM (≈ 1.4 µg/mL). For the same molecule, the MIC80 [22] was 2.5 µM (≈ 2.69 µg/mL), the MIC80 [23] was 0.2 µM (≈ 0.215 µg/mL) and the MIC80 [24] was 2.5 µM (≈ 2.69 µg/mL). It also gave an MIC80 [25] of 2.5 µM (≈ 2.69 µg/mL), an MIC80 [26] of 2.5 µM (≈ 2.69 µg/mL) and an MFC [27] of 5 µM (≈ 5.38 µg/mL). For the same molecule, the MIC80 [27] was 2.5 µM (≈ 2.69 µg/mL), the MIC80 [28] was 0.3 µM (≈ 0.323 µg/mL) and the “MFC<=99.9” value [29] was 2.5 µM (≈ 2.69 µg/mL). The “MFC<=99.9” value [30] was 2.5 µM (≈ 2.69 µg/mL), the MIC80 [31] was 2.5 µM (≈ 2.69 µg/mL) and the MIC80 [32] was 2.5 µM (≈ 2.69 µg/mL). It also gave an MIC80 [33] of 0.3 µM (≈ 0.323 µg/mL), an MIC80 [34] of 1.3 µM and an MFC [35] of 2.5 µM (≈ 2.69 µg/mL). The MIC80 [35] was 1.3 µM (≈ 1.4 µg/mL), the MIC80 [36] was 2.5 µM (≈ 2.69 µg/mL) and the MFC [37] was greater than 10 µM. For the same molecule, the MIC80 [37] was 2.5 µM (≈ 2.69 µg/mL), the MIC80 [38] was 2.5 µM and the MIC80 [39] was 2.5 µM (≈ 2.69 µg/mL). For the same molecule, the MIC80 [40] was 0.6 µM, the MIC80 [41] was 2.5 µM (≈ 2.69 µg/mL) and the “MFC<=99.9” value [42] was 5 µM (≈ 5.38 µg/mL). The MIC80 [43] was less than 0.2 µM.
